What was measured:
platelets = assay: Platelet Aggregation Inhibition Activity (gel-filtered platelets, thrombin or ADP agonist, light transmission); assay type: cell-based; conditions: 37° C.; for IC50: unit inferred
Protocol: The percentage of platelet aggregation is calculated as an increase in light transmission of drug treated platelet concentrate vs control treated platelet concentrate. Blood is obtained from drug free, normal donors and placed into tubes containing 0.13 M sodium citrate (two sources are routinely used: platelet concentrate obtained from Biological Specialty Corp., Lansdale, Pa. or whole blood obtained from donors). Platelet rich plasma (PRP) is collected by centrifugation of the concentrate or whole blood at 130 ×g for 15 min at 25° C. The PRP (5 mL) is gel filtered through Sepharose 2B (bed volume 50 mL), and the platelet count is adjusted to 2×10^7 platelets per sample. The following constituents are added to a siliconized cuvette: 250 μL of the concentrated platelet flitrate, 100 μL of Tyrode's buffer (0.14 M NaCl, 0.0027 M KCl, 0.012 M NaHCO3, 0.76 mM Na2HPO4, 0.0055 M glucose and 2 mg/mL BSA pH 7.4), 50 μL of 2 mM calcium and test drug […]. Aggregation is monitored in a dual channel Chrono-log Aggregometer for three minutes following the addition of agonist (thrombin 50 μL of 1 unit/mL, or ADP 50 μL of 100 μM). The final assay volume is 500 μL. The reaction takes place at 37° C. The peak aggregation response is calculated as the increase in light transmission units over a three minute period. The difference of the increase in light transmission between control and drug treated platelets is then expressed as a percent of the nondrug treated controls.

[1] = target: T1, fibrinogen receptor of blood platelets (activated platelets) (Homo sapiens, UniProt P05106+P08514); assay: Fibrinogen Binding (125I-fibrinogen binding to thrombin-activated platelets); conditions: 125I-fibrinogen 0.15 μM; for IC50: unit inferred
T1 construct: from tissue
Protocol: The compounds of the invention as identified above are evaluated for platelet aggregation inhibition activity as indicated by the percentage of non-aggregated platelets which are available for binding in accordance with the following procedure.
^125 I-Fibrinogen binding to activated platelets is a modification of the procedure described by Bennett et al., 1988. Briefly, 40 mL of PRP are centrifuged at 120 ×g to remove contaminating red cells. Aspirin (50 μM) is added and the PRP is incubated at 37° C. for 20 minutes. The pH of the PRP is adjusted to 6.5 with 3.8% sodium citrate and 0.9 μM of PGE1 is added. Platelets are concentrated by a 300 ×g centrifugation (10 min) and the pellet is resuspended in 4 mL. of Tyrode's buffer. The platelet suspension (4 mL) is gel-filtered through a Sepharose-2B column (50 mL bed volume). The platelet count is adjusted to 1×10^8 platelets per 200 mL. The binding reaction is performed in polystyrene tubes (final volume 500 mL). Reagents are added in the following order: 80 mL of Tyrode's buffer, 50 mL of CaCl2 (final concentration (f.c.) […]) and 50 mL of thrombin (f.c. 0.1 unit/mL). The platelet suspension is then added and the mixture is allowed to incubate at room temperature for 2 minutes. Hirudin (50 mL, f.c. 0.5 unit/mL) is immediately added to prevent the catalytic activity of thrombin. Various concentrations of the compound to be tested […] with the competing radioligand ^125 I-fibrinogen (f.c. of 0.15 μM) are added. The mixture is incubated for 10 minutes at room temperature. To terminate the binding reaction the platelets are sedimented (10,000 ×g for 3 minutes) through silicone oil (3:1 hi-phenol 550/methyl silicone 200, W. F. Nye, Inc., New Bedford, Mass.), in an Eppendorf centrifuge.
The tips of the centrifuge tubes containing the pelleted platelets are cut off and counted for ^125 I-fibrinogen associated with the stimulated platelets. The amount of platelet radioactivity measured in the presence of nonlabeled fibrinogen (4 mg/mL) is considered the nonspecific binding.
Data are expressed as a percent at concentrations of 30 μM of specifically bound ^125 I-fibrinogen to the platelets in Table 5 below. Positive percentages of fibrinogen binding indicates higher activity for inhibiting platelet aggregation since only non-aggregated or free platelets are available for fibrinogen binding. Alternatively, a concentration is provided in lieu of a percentage to indicate the IC50 of concentration of compound which provides 50% fibrinogen binding.

T1 sequence (P08514 32-887 limits assumed): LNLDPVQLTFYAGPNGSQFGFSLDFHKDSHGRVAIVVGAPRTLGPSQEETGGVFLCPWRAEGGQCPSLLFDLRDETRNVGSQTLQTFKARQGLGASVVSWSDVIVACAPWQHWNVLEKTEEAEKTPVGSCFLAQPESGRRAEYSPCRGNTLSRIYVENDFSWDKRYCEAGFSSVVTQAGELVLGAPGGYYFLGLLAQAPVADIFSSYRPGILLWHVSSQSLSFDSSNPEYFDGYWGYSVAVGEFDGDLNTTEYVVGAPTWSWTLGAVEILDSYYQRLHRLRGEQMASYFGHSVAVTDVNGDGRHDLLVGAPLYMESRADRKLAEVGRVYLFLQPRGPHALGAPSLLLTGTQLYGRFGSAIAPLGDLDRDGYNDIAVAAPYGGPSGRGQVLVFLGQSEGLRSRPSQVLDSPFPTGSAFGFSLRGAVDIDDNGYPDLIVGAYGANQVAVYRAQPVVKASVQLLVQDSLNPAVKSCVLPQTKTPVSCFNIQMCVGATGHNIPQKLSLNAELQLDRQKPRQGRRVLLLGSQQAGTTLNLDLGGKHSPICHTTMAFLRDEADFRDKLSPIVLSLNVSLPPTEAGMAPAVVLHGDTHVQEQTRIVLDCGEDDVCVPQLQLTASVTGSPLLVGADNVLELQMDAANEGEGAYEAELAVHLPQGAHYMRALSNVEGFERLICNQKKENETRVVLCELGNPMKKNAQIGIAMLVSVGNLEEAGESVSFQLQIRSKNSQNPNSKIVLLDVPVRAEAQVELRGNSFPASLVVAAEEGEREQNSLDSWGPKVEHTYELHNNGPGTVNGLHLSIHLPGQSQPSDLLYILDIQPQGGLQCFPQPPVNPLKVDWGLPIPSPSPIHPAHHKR
T1 sequence (P08514 891-1039 partner limits assumed): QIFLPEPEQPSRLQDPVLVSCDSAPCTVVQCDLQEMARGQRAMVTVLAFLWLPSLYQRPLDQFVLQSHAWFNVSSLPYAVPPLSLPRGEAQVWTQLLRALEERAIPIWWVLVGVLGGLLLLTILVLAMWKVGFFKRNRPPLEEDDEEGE
T1 sequence (P05106 27-788): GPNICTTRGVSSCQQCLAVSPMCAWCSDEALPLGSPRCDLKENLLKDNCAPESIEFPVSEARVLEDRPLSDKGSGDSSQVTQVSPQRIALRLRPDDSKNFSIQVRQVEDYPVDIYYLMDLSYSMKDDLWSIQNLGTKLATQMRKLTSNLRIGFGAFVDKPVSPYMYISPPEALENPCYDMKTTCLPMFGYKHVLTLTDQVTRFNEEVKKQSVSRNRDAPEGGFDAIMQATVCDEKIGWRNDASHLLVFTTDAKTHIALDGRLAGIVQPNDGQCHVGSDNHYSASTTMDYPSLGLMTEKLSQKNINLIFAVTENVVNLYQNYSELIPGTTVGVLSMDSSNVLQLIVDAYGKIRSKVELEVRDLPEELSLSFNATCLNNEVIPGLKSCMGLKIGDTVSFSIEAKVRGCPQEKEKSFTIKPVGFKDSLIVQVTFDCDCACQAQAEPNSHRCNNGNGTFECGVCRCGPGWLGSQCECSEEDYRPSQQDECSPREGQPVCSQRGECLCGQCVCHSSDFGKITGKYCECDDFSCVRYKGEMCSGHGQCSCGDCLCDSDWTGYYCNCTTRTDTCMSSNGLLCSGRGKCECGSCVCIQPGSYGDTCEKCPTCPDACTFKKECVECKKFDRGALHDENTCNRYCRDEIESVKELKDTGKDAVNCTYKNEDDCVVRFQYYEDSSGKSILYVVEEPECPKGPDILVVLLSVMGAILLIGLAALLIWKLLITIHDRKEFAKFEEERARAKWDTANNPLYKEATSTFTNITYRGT

SMILES	inhibition at 30 µM [1]	IC50 [1]	IC50 (platelets)	inhibition at 20 µM (platelets)
CCCNCCC(=O)N1CCc2nc(Nc3nc(-c4cccc(Cl)c4)cs3)nc(-c3ccccc3)c2C1 [Cmpd 28]				56%
Cc1ccc(-c2csc(Nc3ncc4c(n3)CCNC4)n2)cc1 [Cmpd 23]				25%
COc1ccc(-c2csc(Nc3nc4c(c(-c5ccccc5)n3)CNCC4)n2)cc1 [Cmpd 18]				25%
O=C(c1ccccc1)N1CCc2nc(Nc3nc(-c4ccc(F)cc4)cs3)nc(-c3ccccc3)c2C1 [Cmpd 9]				27%
c1ccc(-c2csc(Nc3ncc4c(n3)CCNC4)n2)cc1 [Cmpd 24]				11%

The next lines start with results.

inhibition at 30 µM [1]	IC50 [1]	IC50 (platelets)	SMILES	inhibition at 20 µM (platelets)
39%			Cc1ccc(-c2csc(Nc3nc4c(c(-c5ccccc5)n3)CN(C(=O)CCN3CCN(C)CC3)CC4)n2)cc1 [Cmpd 26]	81%
87%	20.9 µM	6.1 µM	Clc1ccc(-c2csc(Nc3nc4c(c(-c5ccccc5)n3)CNCC4)n2)cc1 [Cmpd 21]	84%
95%	20.9 µM	5.8 µM	Fc1ccc(-c2csc(Nc3nc4c(c(-c5ccccc5)n3)CNCC4)n2)cc1 [Cmpd 20]	87%
69%	7.7 µM	7.93 µM	c1ccc(-c2csc(Nc3nc4c(c(-c5ccccc5)n3)CNCC4)n2)cc1 [Cmpd 13, 2-[4-Phenylthiazol-2-yl]amino-5,6,7,8-tetrahydro-4-phenylpyrimidino[4,5-d]pyridine]	100%
28%			Cc1ccc(-c2csc(Nc3nc4c(c(-c5ccccc5)n3)CNCC4)n2)cc1 [Cmpd 15, 2-[4-[4-Methylphenyl]thiazol-2-yl]amino-5,6,7,8-tetrahydro-4-phenylpyrimidino[4,5-d]pyridine]	85%

Reference: patent US5405848A, “Substituted thiazolylaminotetrahydropyridopyrimidines derivatives useful as platelet aggregation inhibitors” (Ortho Pharmaceutical Corporation, priority 1993, dated 1995)
